In the experiment the target is HCV NS5b RNA dependent RNA polymerase (Hepatitis C virus genotype 1a, UniProt P27958). The experiment is described as follows: HCV NS5b RNA dependent RNA polymerase inhibition assay (3H-GTP incorporation, scintillation proximity). Format: biochemical. Conditions: inhibition of HCV NS5b polymerase activity; Table 2; read-out: concentration in micromolar required for 50% inhibition. As for the experimental part:
Compounds of the present invention are evaluated for inhibition of HCV NS5b RNA dependent RNA polymerase activity in assays comprised of a suitable buffer (e.g. 20 mM Tris-HCl pH 7.6), primed or unprimed RNA templates, GTP, ATP, CTP, and UTP, MnCl2 or MgCl2, and reducing agent such as 10 mM dithiothreitol or 2-mercaptoethanol. The assay buffer may contain salts such as ammonium acetate, KCl, or NaCl, and nonionic or zwitterionic detergents such as Tween or CHAPS. The incorporation of nucleotides into the complementary RNA strand may be monitored by the incorporation of radiolabeled NTP (e.g. ^3H labeled GTP). Suitable RNA templates for de novo initiation in the presence of 20-50 μM GTP or ATP are the homopolymers poly rC and poly rU, respectively. Heteropolymer RNA templates with 1-3 cytidine (C) bases or 1-3 uridine (U) bases at the 3′ terminus of the template may also be used for de novo initiation. Primed RNA templates such as poly rC primed with oligo rG or oligo dG, and poly rA primed with oligo rU may also be used to detect polymerase activity. The primers may be any length greater than 10 bases. A biotin residue may be added to the 5′ end of the template or the 5′ end of the primer to capture the template and the newly synthesized, complementary strand on avidin coated spheres. […]

Counter-ions that a name gives are not always drawn.

HCV NS5b RNA dependent RNA polymerase, sequence (P27958 2421-3011): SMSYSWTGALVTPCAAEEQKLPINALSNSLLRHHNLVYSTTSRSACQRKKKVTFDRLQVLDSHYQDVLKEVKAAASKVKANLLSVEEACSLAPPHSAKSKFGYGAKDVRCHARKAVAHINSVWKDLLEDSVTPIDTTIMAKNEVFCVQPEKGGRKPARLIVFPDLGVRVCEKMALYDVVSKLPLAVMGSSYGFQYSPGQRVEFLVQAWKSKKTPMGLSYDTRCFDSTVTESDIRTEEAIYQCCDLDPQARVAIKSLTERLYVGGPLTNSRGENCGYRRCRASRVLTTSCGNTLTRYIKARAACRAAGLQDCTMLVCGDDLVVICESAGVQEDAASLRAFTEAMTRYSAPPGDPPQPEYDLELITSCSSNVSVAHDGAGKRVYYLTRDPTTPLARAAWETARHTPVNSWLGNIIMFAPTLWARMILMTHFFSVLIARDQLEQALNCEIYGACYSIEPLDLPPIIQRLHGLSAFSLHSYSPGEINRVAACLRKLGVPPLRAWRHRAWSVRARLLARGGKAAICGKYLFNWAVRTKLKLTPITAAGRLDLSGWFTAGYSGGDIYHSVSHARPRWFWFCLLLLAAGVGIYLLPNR

Take `NCc1ccc(Nc2ccc(C(F)(F)F)cc2NC(=O)c2cc(Cl)c(Cl)cc2C(=O)O)cc1` [i., 2-[[[2-[[4-(Aminomethyl)phenyl]amino]-5-(trifluoromethyl)phenyl]amino]carbonyl]-4,5-dichlorobenzoic acid monohydrochloride]: the IC50 came to 1.42 µM.

As for `N#Cc1ccc(Nc2ccc(C(F)(F)F)cc2NC(=O)c2ccccc2C(=O)O)cc1` [xvii., 2-({[2-[(4-cyanophenyl)amino]-5-(trifluoromethyl)phenyl]amino}carbonyl)benzoic acid], the IC50 is 1.74 µM.

(Values after patent US6930106B2, “Inhibitors of HCV NS5B polymerase” (Pharmacia & UpJohn Company, priority 2002, dated 2005).)
